Results reported in US20100056522A1, “INTRAOCULAR PRESSURE-LOWERING AGENT COMPRISING COMPOUND HAVING HISTONE DEACETYLASE INHIBITOR EFFECT AS ACTIVE INGREDIENT” (Santen Pharmaceutical Co., Ltd., priority 2007, published 2010).

How the values were obtained:
[1] = test system: TM-1 cells (human trabecular meshwork cell line); assay: Test for evaluation of effect of morphological change on trabecular meshwork cells (cell shape index); type: cell-based; conditions: 10 μM, 24 hours, control CSI 0.679, lower CSI indicates greater morphological change
[2] = test system: male Japanese White rabbits; assay: Test for evaluation of intraocular pressure-lowering effect by intracameral administration; type: in vivo; conditions: 1 mM administration liquid, 20 μL intracameral, 8 or 9 hours after administration, vs vehicle control group, 6 cases
Protocol: In order to evaluate an intraocular pressure-lowering effect of the present compounds, a test for evaluation of intraocular pressure-lowering effect by intracameral administration of a drug using male Japanese White rabbits was performed.
A test compound was dissolved or suspended in physiological saline containing 0.5% dimethyl sulfoxide, whereby a 0.1 mM or 1 mM test compound administration liquid was prepared.
One drop of 0.4% oxybuprocaine hydrochloride eye drop was instilled into both eyes of each male Japanese White rabbit to achieve local anesthesia, and thereafter, the intraocular pressure was measured using an applanation tonometer. Then, by using a syringe fitted with a 30-gauge needle, the test compound administration liquid (20 μL) was intracamerally administered to one eye. As a control, 20 μL of the vehicle (physiological saline containing 0.5% dimethyl sulfoxide) for the test compound was intracamerally administered. After the lapse of a certain period of time from the administration of the test compound or vehicle, one drop of 0.4% oxybuprocaine hydrochloride eye drop was instilled into the administered eye to achieve local anesthesia, and thereafter, the intraocular pressure was measured using an applanation tonometer.
The intraocular pressure-lowering effect of each test compound was evaluated by calculating an intraocular pressure reduction rate. The intraocular pressure reduction rate (%) was calculated using the following equation.
(Intraocular Pressure Reduction Rate(%))=100×[{(Average Value of Intraocular Pressure of Control Group)−(Average Value of Intraocular Pressure of Each Test Compound Administration Group)}/(Average Value of Intraocular Pressure of Control Group)]

[3] = test system: HDAC (HeLa nuclear extract); assay: Test for evaluation of an HDAC inhibitory effect (HDAC Fluorimetric Assay/Drug Discovery Kit, Biomol); type: biochemical; conditions: final concentration of test compound 30 μM, rates of more than 100% are shown as 100%

SMILES | CSI [1] | Intraocular Pressure Reduction Rate (%) [2] | Enzyme Inhibitory Rate (%) [3]
CN(C)CCN(Cc1ccc(C(=O)Nc2ccccc2N)nc1)C(=O)Nc1nccs1 [Compound 1-96, N-(2-Aminophenyl)-5-[1-(2-dimethylaminoethyl)-3-(1,3-thiazol-2-yl)ureidomethyl]pyridine-2-carboxylic acid amide] | 0.489 | 18% | 98%
Nc1ccccc1NC(=O)c1ccc(CNc2nccc(-c3cccnc3)n2)cc1 [MGCD-0103 free base, N-(2-Aminophenyl)-4-[4-(pyridin-3-yl)pyrimidin-2-ylaminomethyl]benzamide, reference compound] | 0.584 | 23% | 96%
Nc1ccccc1NC(=O)c1ccc(CNC(=O)OCc2cccnc2)cc1 [MS 275, N-(2-Aminophenyl)-4-(pyridin-3-ylmethyloxycarbonylaminomethyl)benzamide, reference compound] | 0.552 | 13% | 99%
CC(/C=C/C(=O)NO)=C\[C@@H](C)C(=O)c1ccc(N(C)C)cc1 [Trichostatin A, reference compound] | 0.496 | 18% | 100%
